Data reported in patent EP4574175A1, “PRODRUG FOR ANTI-AGING RELATED DISEASES AND USE METHOD THEREFOR” (BEIJING SUNCELL BIO-MEDICAL CO., LTD., priority 2022, dated 2024).

Experiments:
[1] = target: T1, E. coli-derived β-galactosidase (Escherichia coli, UniProt P00722); assay: In vitro enzymatic hydrolysis reaction monitored by HPLC; format: biochemical; conditions: 10 µM, PBS pH 7.3, 37°C, 6 hours
T1 construct: purchased Sigma
Method: The in vitro enzymatic hydrolysis reaction was carried out using E. coli-derived β-galactosidase (Sigma) in PBS solution (0.01 M, pH 7.3) at a reaction concentration of 10 µM for both A13 and A13bG, and for 6 hours at 37°C after the addition of β-galactosidase (10 U/µM). The hydrolysis reaction was monitored by the high performance liquid chromatography (HPLC). The compound A13 and the prodrug A13bG without enzyme reaction were analyzed by HPLC at the same conditions as the references. The chromatographic column model: Waters Acquity BEH C4, the conditions: 0.04 ml/min, (water (0.1% acetic acid)): the acetonitrile gradient elution: 98:2 1 min, 5:95 13 min, 5:95 18 min, 2:98 20 min.

[2] = Hepatic microsomal metabolic stability
[3] = Hepatic microsomal metabolic stability; remark: listed apart in the source
[4] = Plasma metabolic stability; format: in vitro ADME; conditions: 10 µM, 120 minutes; for The peak area after normalisation at minute 120, peak 1 oxidative dehydrogenation: metabolite peak
Method: (§1) Termination of the reaction was accomplished by the addition of 3x volume of acetonitrile and centrifugation at 16000 g for 20 minutes. The supernatant was taken for a LC-MS/MS analysis. The chromatographic column: Waters XSelect HSS T3; the flow rate: 500 µL/min; the eluent: A, water (0.1% formic acid); B, acetonitrile (0.1% formic acid); the gradient elution: 0-1.5 min, 5% B, 1.5-9 min, 5%-80% B, 9-12 min, 80%-100% B, 12-14 min, 100% B, 14-14.3 min, 100%-5% B, 14.3-15 min, 5% B.

[5] = Hepatic microsomal metabolic stability; conditions: mouse
Method: […] Samples were taken and analyzed at time points 0, 15, 30, 45 and 60 minutes during the incubation. The reaction was terminated by adding an amount of acetonitrile solution containing the internal standard. […] The residual percentage, half-life, intrinsic clearance, amplified clearance, hepatic clearance and hepatic extraction ratio were determined. The entire experiment was performed in triplicate. All data calculations were performed by Microsoft Excel software. Peak areas were detected by extracting the ionic spectrum. The in vitro half-life (t1/2) of the parent compound was detected by fitting the natural logarithm of the percentage elimination of the parent compound linearly to time.
The in vitro intrinsic clearance (in µL/min/mg protein) was calculated using the following equation: in vitro CLint = kV/N
The amplified clearance (in mL/min/kg) was calculated using the following equation: Amplified CLint = kV/N × the amplification factor [formula]
The hepatic clearance (in mL/min/kg) was calculated using the following equation: The predicted hepatic CLH = (Q×Fu/RB×theamplifiedCLint)/([…]) [formula] • V = the incubation volume per well (0.2 mL); • N = the total amount of protein (mg) • Q = the hepatic blood flow (mL/min/kg) • Fu = the plasma free rate (assumed to be 1) • RB = the whole blood partition coefficient (assumed to be 1)
The hepatic […] was calculated using the following equation: The hepatic extraction ratio(ER) = (thepredictedhepaticCLH)/Q [formula]

[6] = Plasma metabolic stability; format: in vitro ADME, human; conditions: Huamn plasma, 10 µM, 120 minutes
Method: as §1

[7] = Hepatic microsomal metabolic stability; remark: listed apart in the source

T1 sequence (P00722 2-1024): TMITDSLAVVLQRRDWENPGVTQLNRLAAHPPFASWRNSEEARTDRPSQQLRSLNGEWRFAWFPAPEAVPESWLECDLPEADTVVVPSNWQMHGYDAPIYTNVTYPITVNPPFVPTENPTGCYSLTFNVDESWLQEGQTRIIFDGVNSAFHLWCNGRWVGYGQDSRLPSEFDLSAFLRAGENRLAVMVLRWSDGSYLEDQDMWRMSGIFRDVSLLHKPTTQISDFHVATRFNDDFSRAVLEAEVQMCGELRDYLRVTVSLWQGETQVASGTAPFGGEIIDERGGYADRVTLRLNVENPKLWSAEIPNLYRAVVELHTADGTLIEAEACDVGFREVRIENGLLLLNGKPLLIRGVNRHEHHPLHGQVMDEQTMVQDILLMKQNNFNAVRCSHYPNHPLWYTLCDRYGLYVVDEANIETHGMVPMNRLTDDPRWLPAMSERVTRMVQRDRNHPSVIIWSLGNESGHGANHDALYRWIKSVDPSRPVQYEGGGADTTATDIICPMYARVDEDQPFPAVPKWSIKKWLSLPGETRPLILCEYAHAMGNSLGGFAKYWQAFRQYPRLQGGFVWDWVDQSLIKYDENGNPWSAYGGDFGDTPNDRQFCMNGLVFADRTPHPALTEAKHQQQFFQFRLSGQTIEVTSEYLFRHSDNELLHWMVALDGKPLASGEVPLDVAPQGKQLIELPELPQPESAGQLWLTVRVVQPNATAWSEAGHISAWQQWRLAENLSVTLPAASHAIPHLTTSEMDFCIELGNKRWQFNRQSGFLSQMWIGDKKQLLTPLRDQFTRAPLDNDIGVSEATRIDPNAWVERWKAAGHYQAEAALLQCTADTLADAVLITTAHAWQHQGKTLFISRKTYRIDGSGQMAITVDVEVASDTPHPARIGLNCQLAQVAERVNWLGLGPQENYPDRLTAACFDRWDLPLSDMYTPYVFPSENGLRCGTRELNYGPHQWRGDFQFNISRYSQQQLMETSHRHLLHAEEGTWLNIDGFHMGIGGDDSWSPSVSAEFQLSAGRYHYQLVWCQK

## Cc1c(-c2ccc(N3CCc4cccc(C(=O)Nc5nc6ccccc6s5)c4C3)nc2C(=O)OCc2ccc(O[C@@H]3O[C@H](CO)[C@H](O)[C@H](O)[C@H]3O)c([N+](=O)[O-])c2)cnn1CC12CC3CC(CC(C3)C1)C2 [A13bGa1]
[1]
  hydrolysis by β-gal enzyme: hydrolysed under the action of β-gal enzyme to release the parent compound A13
[2]; Monkey
  The hepatic extraction ratio (E): 0.69
[2]; monkey, microsomes
  microsomal CLint at 1 µM: 65.3 µL/min/mg
[2]; monkey, microsomes, The amplified intrinsic clearance Cl int
  CLint scaled at 1 µM: 9800 mL/min/kg
[2]; monkey, microsomes, The predicted intrinsic hepatic clearance Cl int
  CLint scaled at 1 µM: 30.2 mL/min/kg
[3]; Rat
  The hepatic extraction ratio (E): 0.34
[3]; rat, microsomes
  CLint scaled at 1 µM: 18.7 mL/min/kg
  microsomal CLint at 1 µM: 15.8 µL/min/mg
[4]; Canine plasma
  The peak area after normalisation at minute 120, Initial drug A13bGa1: 99.52%
  The peak area after normalisation at minute 120, peak 1 oxidative dehydrogenation: 0.48%
[4]; Monkey plasma
  The peak area after normalisation at minute 120, Initial drug A13bGa1: 99.96%
  The peak area after normalisation at minute 120, peak 1 oxidative dehydrogenation: 0.04%
[4]; Mouse plasma
  The peak area after normalisation at minute 120, Initial drug A13bGa1: 99.96%
  The peak area after normalisation at minute 120, peak 1 oxidative dehydrogenation: 0.04%
[4]; Rat plasma
  The peak area after normalisation at minute 120, Initial drug A13bGa1: 99.87%
  The peak area after normalisation at minute 120, peak 1 oxidative dehydrogenation: 0.13%
[5]
  The hepatic extraction ratio (E): 0.40
[5]; microsomes
  CLint scaled at 1 µM: 36.2 mL/min/kg
  microsomal CLint at 1 µM: 13.8 µL/min/mg
[6]
  The peak area after normalisation at minute 120, Initial drug A13bGa1: 99.93%
[6]; metabolite peak
  The peak area after normalisation at minute 120, peak 1 oxidative dehydrogenation: 0.07%
[7]; Canine
  The hepatic extraction ratio (E): 0.70
[7]; dog, microsomes
  CLint scaled at 1 µM: 21.7 mL/min/kg
  microsomal CLint at 1 µM: 29.3 µL/min/mg
